Where two headings read alike, the source gives them in different places. Where a SMILES comes first, the peptide text is derived from it.
Assays:
SK-N-MC cells = experiment: Cellular entry of FAM-labeled peptide, fluorescent confocal microscopy; assay type: cell-based, human; conditions: FAM-labeled peptide 1.5 µM, serum starved cells, confocal fluorescence
Description: (§1) MDA-MB-231 cells (1×10^5 cells per plate) were plated on 35 mm glass-bottom plates (MatTek Corporation, Ashland, MA), allowed to adhere overnight, then serum starved overnight and analyzed the following day in HBSS (Hank’s balanced salt solution). For real-time uptake of the FAM-labeled peptides, after recording background images, the FAM-labeled peptides were added and cells were imaged every two minutes over approximately 30 minutes. After 30 minutes, images were taken less frequently. Images from representative timepoints are shown. For overnight treatment, the cells were treated in serum-starved media, exchanged into HBSS the following day and imaged.
(§2) FAM-TE-64562 enters in SK-N-MC cells without any effect of EGF pretreatment. Confocal images of overnight serum starved MDA-MB-231 cells before treatment (0 min) and treated for 90 minutes (A) with 5.0 µM […], (B) with 1.25 µM FAM-Tat or (C) with 2.5 µM FAM-Tat for 60 minutes. (D) SK-N-MC were serum starved overnight and treated with FAM-TE-64562 (1.5 µM) for 16 minutes. (E) NR6 cells MC were serum starved overnight and treated with FAM-TE-64562 (5 µM) for 20 minutes. All scale bars are 20 µm. (TIF) Click here for additional data file.

NR6 cells = experiment: as above; assay type: cell-based; conditions: FAM-labeled peptide 5 µM, serum starved cells, confocal fluorescence
Description: as §1, §2

MDA-MB-231 cells [1] = experiment: Cell viability assay (CellTiter-Glo); assay type: cell-based, human
Excerpt: Assays are run in triplicate.

MDA-MB-231 cells [2] = experiment: Cellular entry of FAM-labeled peptides, live-cell fluorescent confocal microscopy; assay type: cell-based, human; conditions: N-terminally FAM-labeled peptide, monitored up to 90 minutes and/or overnight incubation, confocal fluorescence
Description: as §1

[3] = serum starved overnight (0.1% BSA, no FBS), 24 h treatment, CellTiter-Glo, mean ± S.D. of at least three independent experiments, read-out: EC50± S.D.

Row | SMILES | EC50 (MDA-MB-231 cells [1]; [3]) | fluorescence within the interior of the cell (MDA-MB-231 cells [2]) | other results
1 | CC[C@H](C)[C@H](NC(=O)[C@H](Cc1c[nH]cn1)NC(=O)[C@H](CCCNC(=N)N)NC(=O)[C@H](CCCNC(=N)N)NC(=O)[C@H](CCCNC(=N)N)NC(=O)CNC(=O)[C@H](CCCNC(=N)N)NC(=O)[C@H](CCCNC(=N)N)NC(=O)[C@H](CCCNC(=N)N)NC(=O)[C@H](CCC(N)=O)NC(=O)[C@H](CCCNC(=N)N)NC(=O)[C@H](CCCNC(=N)N)NC(=O)[C@H](CCCCN)NC(=O)[C@H](CCCCN)NC(=O)[C@H](CCCNC(=N)N)NC(=O)c1ccc2c(c1)C(=O)OC21c2ccc(O)cc2Oc2cc(O)ccc21)C(=O)N[C@H](C(=O)N[C@@H](CCCNC(=N)N)C(=O)N[C@@H](CCCCN)C(=O)N[C@@H](CCCNC(=N)N)C(=O)N[C@H](C(=O)N[C@@H](CC(C)C)C(=O)N[C@@H](CCCNC(=N)N)C(=O)N[C@@H](CCCNC(=N)N)C(=O)N[C@@H](CC(C)C)C(=O)N[C@@H](CC(C)C)C(=O)N[C@@H](CCC(N)=O)C(=O)N[C@@H](CCC(=O)O)C(=O)N[C@@H](CCCNC(=N)N)C(=O)O)[C@@H](C)O)C(C)C [FAM-conjugated TE-64562] (HELM PEPTIDE1{[O=C1OC2(c3ccc(O)cc3Oc3cc(O)ccc32)c2ccc(C(=O)[*:2])cc21].R.K.K.R.R.Q.R.R.R.G.R.R.R.H.I.V.R.K.R.T.L.R.R.L.L.Q.E.R}$$$$V2.0) | – | – | time until peptide entered cells (SK-N-MC cells): ≤ 15 min; time until peptide entered cells (NR6 cells): ≤ 15 min
2 | N=C(N)NCCC[C@H](NC(=O)[C@H](CCCNC(=N)N)NC(=O)[C@H](CCCNC(=N)N)NC(=O)[C@H](CCC(N)=O)NC(=O)[C@H](CCCNC(=N)N)NC(=O)[C@H](CCCNC(=N)N)NC(=O)[C@H](CCCCN)NC(=O)[C@H](CCCCN)NC(=O)[C@@H](N)CCCNC(=N)N)C(=O)NCC(=O)O [Tat, reference compound] (H-RKKRRQRRRG-OH) | > 100 µM | – | –
3 | CC[C@H](C)[C@H](NC(=O)[C@H](CCCNC(=N)N)NC(=O)[C@H](CC(C)C)NC(=O)[C@H](CCC(=O)O)NC(=O)[C@H](CCC(=O)O)NC(=O)[C@H](CC(C)C)NC(=O)[C@H](C)NC(=O)[C@H](CCCNC(=N)N)NC(=O)[C@H](CCC(=O)O)NC(=O)[C@H](CCC(=O)O)NC(=O)[C@@H](NC(=O)[C@H](CCCNC(=N)N)NC(=O)[C@H](C)NC(=O)[C@H](CCCNC(=N)N)NC(=O)[C@H](CCC(=O)O)NC(=O)[C@H](CCC(=O)O)NC(=O)CNC(=O)[C@H](CCCNC(=N)N)NC(=O)[C@H](CCCNC(=N)N)NC(=O)[C@H](CCCNC(=N)N)NC(=O)[C@H](CCC(N)=O)NC(=O)[C@H](CCCNC(=N)N)NC(=O)[C@H](CCCNC(=N)N)NC(=O)[C@H](CCCCN)NC(=O)[C@H](CCCCN)NC(=O)[C@@H](N)CCCNC(=N)N)C(C)C)C(=O)N[C@@H](CCC(=O)O)C(=O)N[C@@H](CCC(=O)O)C(=O)O [T-control] (H-RKKRRQRRRGEERARVEERALEELRIEE-OH) | > 100 µM | – | –
4 | N=C(N)NCCC[C@H](NC(=O)c1ccc2c(c1)C(=O)OC21c2ccc(O)cc2Oc2cc(O)ccc21)C(=O)N[C@@H](CCCCN)C(=O)N[C@@H](CCCCN)C(=O)N[C@@H](CCCNC(=N)N)C(=O)N[C@@H](CCCNC(=N)N)C(=O)N[C@@H](CCC(N)=O)C(=O)N[C@@H](CCCNC(=N)N)C(=O)N[C@@H](CCCNC(=N)N)C(=O)N[C@@H](CCCNC(=N)N)C(=O)NCC(=O)O [FAM-conjugated Tat, reference compound] (HELM PEPTIDE1{[O=C1OC2(c3ccc(O)cc3Oc3cc(O)ccc32)c2ccc(C(=O)[*:2])cc21].R.K.K.R.R.Q.R.R.R.G}$$$$V2.0) | – | did not display any fluorescence within the interior of the cell | –
5 | CC[C@H](C)[C@H](NC(=O)[C@H](Cc1c[nH]cn1)NC(=O)[C@H](CCCNC(=N)N)NC(=O)[C@H](CCCNC(=N)N)NC(=O)[C@H](CCCNC(=N)N)NC(=O)c1ccc2c(c1)C(=O)OC21c2ccc(O)cc2Oc2cc(O)ccc21)C(=O)N[C@H](C(=O)N[C@@H](CCCNC(=N)N)C(=O)N[C@@H](CCCCN)C(=O)N[C@@H](CCCNC(=N)N)C(=O)N[C@H](C(=O)N[C@@H](CC(C)C)C(=O)N[C@@H](CCCNC(=N)N)C(=O)N[C@@H](CCCNC(=N)N)C(=O)N[C@@H](CC(C)C)C(=O)N[C@@H](CC(C)C)C(=O)N[C@@H](CCC(N)=O)C(=O)N[C@@H](CCC(=O)O)C(=O)N[C@@H](CCCNC(=N)N)C(=O)O)[C@@H](C)O)C(C)C [FAM-conjugated E-64562] (HELM PEPTIDE1{[O=C1OC2(c3ccc(O)cc3Oc3cc(O)ccc32)c2ccc(C(=O)[*:2])cc21].R.R.R.H.I.V.R.K.R.T.L.R.R.L.L.Q.E.R}$$$$V2.0) | – | did not display any fluorescence within the interior of the cell | –
6 | CC(C)C[C@H](NC(=O)[C@H](CC(C)C)NC(=O)[C@H](CCCNC(=N)N)NC(=O)[C@H](CCCNC(=N)N)NC(=O)[C@H](C)NC(=O)[C@H](C)NC(=O)[C@H](CCCNC(=N)N)NC(=O)[C@H](CCCCN)NC(=O)[C@H](CCCNC(=N)N)NC(=O)[C@H](C)NC(=O)[C@H](C)NC(=O)[C@H](Cc1c[nH]cn1)NC(=O)[C@H](CCCNC(=N)N)NC(=O)[C@H](CCCNC(=N)N)NC(=O)[C@H](CCCNC(=N)N)NC(=O)CNC(=O)[C@H](CCCNC(=N)N)NC(=O)[C@H](CCCNC(=N)N)NC(=O)[C@H](CCCNC(=N)N)NC(=O)[C@H](CCC(N)=O)NC(=O)[C@H](CCCNC(=N)N)NC(=O)[C@H](CCCNC(=N)N)NC(=O)[C@H](CCCCN)NC(=O)[C@H](CCCCN)NC(=O)[C@@H](N)CCCNC(=N)N)C(=O)N[C@@H](C)C(=O)N[C@@H](C)C(=O)N[C@@H](CCCNC(=N)N)C(=O)O [T-poly-Ala] (H-RKKRRQRRRGRRRHAARKRAARRLLAAR-OH) | > 100 µM | – | –
7 | CC[C@H](C)[C@H](NC(=O)[C@H](Cc1c[nH]cn1)NC(=O)[C@H](CCCNC(=N)N)NC(=O)[C@H](CCCNC(=N)N)NC(=O)[C@@H](N)CCCNC(=N)N)C(=O)N[C@H](C(=O)N[C@@H](CCCNC(=N)N)C(=O)N[C@@H](CCCCN)C(=O)N[C@@H](CCCNC(=N)N)C(=O)N[C@H](C(=O)N[C@@H](CC(C)C)C(=O)N[C@@H](CCCNC(=N)N)C(=O)N[C@@H](CCCNC(=N)N)C(=O)N[C@@H](CC(C)C)C(=O)N[C@@H](CC(C)C)C(=O)N[C@@H](CCC(N)=O)C(=O)N[C@@H](CCC(=O)O)C(=O)N[C@@H](CCCNC(=N)N)C(=O)O)[C@@H](C)O)C(C)C [E-64562] (H-RRRHIVRKRTLRRLLQER-OH) | – | – | EC50 (MDA-MB-231 cells [1]; 24 h): > 100 µM
8 | CC[C@H](C)[C@H](NC(=O)[C@H](CCCNC(=N)N)NC(=O)[C@H](CC(C)C)NC(=O)[C@H](CC(C)C)NC(=O)[C@H](C)NC(=O)[C@H](CCC(N)=O)NC(=O)[C@H](CC(N)=O)NC(=O)[C@@H]1CCCN1C(=O)[C@H](C)NC(=O)[C@H](CCC(=O)O)NC(=O)CNC(=O)[C@H](CO)NC(=O)[C@@H]1CCCN1C(=O)[C@@H](NC(=O)[C@H](CC(C)C)NC(=O)[C@@H]1CCCN1C(=O)[C@H](CCC(=O)O)NC(=O)[C@@H](NC(=O)CNC(=O)[C@H](CCCNC(=N)N)NC(=O)[C@H](CCCNC(=N)N)NC(=O)[C@H](CCCNC(=N)N)NC(=O)[C@H](CCC(N)=O)NC(=O)[C@H](CCCNC(=N)N)NC(=O)[C@H](CCCNC(=N)N)NC(=O)[C@H](CCCCN)NC(=O)[C@H](CCCCN)NC(=O)[C@@H](N)CCCNC(=N)N)C(C)C)[C@@H](C)O)C(=O)O [TE-66482] (H-RKKRRQRRRGVEPLTPSGEAPNQALLRI-OH) | > 100 µM | – | –
9 | CC[C@H](C)[C@H](NC(=O)[C@H](CCCNC(=N)N)NC(=O)[C@H](CC(C)C)NC(=O)[C@H](CC(C)C)NC(=O)[C@H](C)NC(=O)[C@H](CCC(N)=O)NC(=O)[C@H](CC(N)=O)NC(=O)[C@@H]1CCCN1C(=O)[C@H](C)NC(=O)[C@H](CCC(=O)O)NC(=O)CNC(=O)[C@H](CO)NC(=O)[C@@H]1CCCN1C(=O)[C@@H](NC(=O)[C@H](CC(C)C)NC(=O)[C@@H]1CCCN1C(=O)[C@H](CCC(=O)O)NC(=O)[C@@H](NC(=O)CNC(=O)[C@H](CCCNC(=N)N)NC(=O)[C@H](CCCNC(=N)N)NC(=O)[C@H](CCCNC(=N)N)NC(=O)[C@H](CCC(N)=O)NC(=O)[C@H](CCCNC(=N)N)NC(=O)[C@H](CCCNC(=N)N)NC(=O)[C@H](CCCCN)NC(=O)[C@H](CCCCN)NC(=O)[C@H](CCCNC(=N)N)NC(=O)c1ccc2c(c1)C(=O)OC21c2ccc(O)cc2Oc2cc(O)ccc21)C(C)C)[C@@H](C)O)C(=O)O [FAM-labeled TE-66482] (HELM PEPTIDE1{[O=C1OC2(c3ccc(O)cc3Oc3cc(O)ccc32)c2ccc(C(=O)[*:2])cc21].R.K.K.R.R.Q.R.R.R.G.V.E.P.L.T.P.S.G.E.A.P.N.Q.A.L.L.R.I}$$$$V2.0) | – | did not display any fluorescence within the interior of the cell | –

From publication PMC3499488, “A Potential Peptide Therapeutic Derived from the Juxtamembrane Domain of the Epidermal Growth Factor Receptor” (PLoS ONE, 2012)
